Test results: patent US20250250230A1, “HETEROCYCLIC COMPOUND” (TAKEDA PHARMACEUTICAL COMPANY LIMITED, priority 2022, published 2025)

Molecular target: T1, human orexin type 2 receptor (Homo sapiens, UniProt O43614)
T1 construct: expressed in transfected cells
T1 sequence (O43614 1-444): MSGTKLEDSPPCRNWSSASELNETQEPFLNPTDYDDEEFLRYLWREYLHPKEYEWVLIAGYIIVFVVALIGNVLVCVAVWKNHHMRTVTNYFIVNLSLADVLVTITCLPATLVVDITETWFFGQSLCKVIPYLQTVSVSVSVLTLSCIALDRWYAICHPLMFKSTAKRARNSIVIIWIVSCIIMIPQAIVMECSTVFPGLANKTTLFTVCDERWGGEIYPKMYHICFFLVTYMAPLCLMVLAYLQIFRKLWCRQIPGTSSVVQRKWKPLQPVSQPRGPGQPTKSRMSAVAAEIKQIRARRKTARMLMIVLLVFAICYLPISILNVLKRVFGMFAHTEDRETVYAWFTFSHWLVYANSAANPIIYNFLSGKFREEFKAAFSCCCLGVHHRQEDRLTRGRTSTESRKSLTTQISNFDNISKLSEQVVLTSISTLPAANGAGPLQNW
Assay: Measurement of orexin type 2 receptor agonist activity (calcium fluorescence, Fluo-4 AM, FDSS)
Format: cell-based
Conditions: test compound 3 μM; CHO cells expressing human OX2 receptor; DMSO = 0%, orexin A (human) = 100%
Excerpt: To obtain a cell clone stably expressing human orexin type 2 receptor, human orexin type 2 receptor cDNA was inserted into pcDNA3.1(+) plasmid vector (Invitrogen), and a plasmid DNA for expression of human orexin type 2 receptor (pcDNA3.1(+)/hOX2R) was cloned. The plasmid DNA was introduced into CHO-K1 cell by an electroporation method, and human orexin type 2 receptor expressing clone cells were obtained by limiting dilution method by using G418 drug resistance as a selection marker.
CHO cells forcibly expressing human OX2 receptor were seeded in each well of 384 well black transparent bottom plate (BD Falcon) at 10,000 cells/well, and cultured for one day in a 5% CO2 incubator at 37° C. After removal of the medium in the cell plate, assay buffer A containing a calcium indicator (HBSS (Thermo Fisher Scientific), 20 mM HEPES (Thermo Fisher Scientific), 0.1% BSA (Sigma-Aldrich), 2.5 μg/mL Fluo-4 AM (DOJINDO Chemical), 0.08% Pluronic F127 (DOJINDO Chemical), 1.25 mM probenecid (DOJINDO Chemical)) was added at 30 μL/well. The plate was stood for 30 min in a 5% CO2 incubator at 37° C., and further stood at room temperature for 30 min. A test compound prepared by diluting with assay buffer B (HBSS, 20 mM HEPES, 0.1% BSA) was added at 10 μL/well, and the fluorescence value was measured by FDSSμCELL (Hamamatsu Photonics K.K.) every one sec for 1 min, and thereafter every two sec for […]. The activity (%) of the test compound was calculated assuming that variation in the fluorescence value when DMSO was added instead of the test compound was 0%, and variation in the fluorescence value when orexin A (human) (PEPTIDE INSTITUTE, INC.) was added at the final concentration of 10 nM was 100%.

Row | Structure (SMILES) | OX2R agonist activity (3 μM, %) [%]
1 | CS(=O)(=O)N[C@H]1CCN(C(=O)C2CC2c2cccc(F)c2-c2c(F)cccc2F)C1 (mixture of isomers) [Example 192, a mixture of N-{(3S)-1-[(1R,2R)-2-(2′,6,6′-trifluoro[1,1′-biphenyl]-2-yl)cyclopropane-1-carbonyl]pyrrolidin-3-yl}methanesulfonamide and N-{(3S)-1-[(1S,2S)-2-(2′,6,6′-trifluoro[1,1′-biphenyl]-2-yl)cyclopropane-1-carbonyl]pyrrolidin-3-yl}methanesulfonamide] | 95
2 | CS(=O)(=O)N[C@H]1CCCN(C(=O)C2CC2c2cccc(F)c2-c2c(F)cccc2F)C1 (mixture of isomers) [Example 193, a mixture of N-{(3S)-1-[(1R,2R)-2-(2′,6,6′-trifluoro[1,1′-biphenyl]-2-yl)cyclopropane-1-carbonyl]piperidin-3-yl}methanesulfonamide and N-{(3S)-1-[(1S,2S)-2-(2′,6,6′-trifluoro[1,1′-biphenyl]-2-yl)cyclopropane-1-carbonyl]piperidin-3-yl}methanesulfonamide] | 98
3 | CS(=O)(=O)N[C@H]1CCCN(C(=O)C2CC2(F)c2ccccc2-c2c(F)cccc2F)C1 (mixture of isomers) [Example 199, a mixture of N-{(3S)-1-[(1R,2R)-2-(2′,6′-difluoro[1,1′-biphenyl]-2-yl)-2-fluorocyclopropane-1-carbonyl]piperidin-3-yl}methanesulfonamide and N-{(3S)-1-[(1S,2S)-2-(2′,6′-difluoro[1,1′-biphenyl]-2-yl)-2-fluorocyclopropane-1-carbonyl]piperidin-3-yl}methanesulfonamide] | 104
4 | O=C(C1CC1c1ccccc1-c1c(F)cccc1F)N1CCC[C@H](NS(=O)(=O)CF)C1 (mixture of isomers) [Example 207, a mixture of N-{(3S)-1-[(1R,2R)-2-(2′,6′-difluoro[1,1′-biphenyl]-2-yl)cyclopropane-1-carbonyl]piperidin-3-yl}-1-fluoromethanesulfonamide and N-{(3S)-1-[(1S,2S)-2-(2′,6′-difluoro[1,1′-biphenyl]-2-yl)cyclopropane-1-carbonyl]piperidin-3-yl}-1-fluoromethanesulfonamide] | 101
5 | COCS(=O)(=O)N[C@H]1CCCN(C(=O)C2CC2c2ccccc2-c2c(F)cccc2F)C1 (mixture of isomers) [Example 214, a mixture of N-{(3S)-1-[(1R,2R)-2-(2′,6′-difluoro[1,1′-biphenyl]-2-yl)cyclopropane-1-carbonyl]piperidin-3-yl}-1-methoxymethanesulfonamide and N-{(3S)-1-[(1S,2S)-2-(2′,6′-difluoro[1,1′-biphenyl]-2-yl)cyclopropane-1-carbonyl]piperidin-3-yl}-1-methoxymethanesulfonamide] | 95
6 | COCS(=O)(=O)NC1CCN(C(=O)C2CC2c2ccccc2-c2c(F)cccc2F)C1 (mixture of isomers) [Example 227, a mixture of N-{(3S)-1-[(1R,2R)-2-(2′,6′-difluoro[1,1′-biphenyl]-2-yl)cyclopropane-1-carbonyl]pyrrolidin-3-yl}-1-methoxymethanesulfonamide and N-{(3S)-1-[(1S,2S)-2-(2′,6′-difluoro[1,1′-biphenyl]-2-yl)cyclopropane-1-carbonyl]pyrrolidin-3-yl}-1-methoxymethanesulfonamide] | 85
7 | CC1[C@@H](NS(C)(=O)=O)CCN1C(=O)[C@@H]1C[C@H]1c1ccccc1-c1c(F)cccc1F (mixture of isomers) [Example 261, a mixture of N-{(2R,3R)-1-[(1R,2R)-2-(2′,6′-difluoro[1,1′-biphenyl]-2-yl)cyclopropane-1-carbonyl]-2-methylpyrrolidin-3-yl}methanesulfonamide and N-{(2S,3S)-1-[(1R,2R)-2-(2′,6′-difluoro[1,1′-biphenyl]-2-yl)cyclopropane-1-carbonyl]-2-methylpyrrolidin-3-yl}methanesulfonamide] | 88
8 | C[C@]1(NS(C)(=O)=O)CCN(C(=O)[C@@H]2C[C@H]2c2ccccc2-c2c(F)cccc2F)C1 (mixture of isomers) [Example 286, a mixture of N-{(3R)-1-[(1R,2R)-2-(2′,6′-difluoro[1,1′-biphenyl]-2-yl)cyclopropane-1-carbonyl]-3-methylpyrrolidin-3-yl}methanesulfonamide and N-{(3S)-1-[(1R,2R)-2-(2′,6′-difluoro[1,1′-biphenyl]-2-yl)cyclopropane-1-carbonyl]-3-methylpyrrolidin-3-yl}methanesulfonamide] | 96

Continued, values first:

Row | OX2R agonist activity (3 μM, %) [%] | Structure (SMILES)
9 | 78 | CS(=O)(=O)N[C@@H]1CCCCN(C(=O)C2CC2c2ccccc2-c2c(F)cccc2F)C1 (mixture of isomers) [Example 183, a mixture of N-{(3R)-1-[(1R,2R)-2-(2′,6′-difluoro[1,1′-biphenyl]-2-yl)cyclopropane-1-carbonyl]azepan-3-yl}methanesulfonamide and N-{(3R)-1-[(1S,2S)-2-(2′,6′-difluoro[1,1′-biphenyl]-2-yl)cyclopropane-1-carbonyl]azepan-3-yl}methanesulfonamide]
10 | 108 | CS(=O)(=O)N[C@H]1CCCCN(C(=O)C2CC2c2ccccc2-c2c(F)cccc2F)C1 (mixture of isomers) [Example 184, a mixture of N-{(3S)-1-[(1R,2R)-2-(2′,6′-difluoro[1,1′-biphenyl]-2-yl)cyclopropane-1-carbonyl]azepan-3-yl}methanesulfonamide and N-{(3S)-1-[(1S,2S)-2-(2′,6′-difluoro[1,1′-biphenyl]-2-yl)cyclopropane-1-carbonyl]azepan-3-yl}methanesulfonamide]
11 | 100 | CS(=O)(=O)N[C@H]1CCCN(C(=O)C2CC2c2cccc(F)c2-c2c(F)cccc2F)CC1 (mixture of isomers) [Example 194, a mixture of N-{(4S)-1-[(1R,2R)-2-(2′,6,6′-trifluoro[1,1′-biphenyl]-2-yl)cyclopropane-1-carbonyl]azepan-4-yl}methanesulfonamide and N-{(4S)-1-[(1S,2S)-2-(2′,6,6′-trifluoro[1,1′-biphenyl]-2-yl)cyclopropane-1-carbonyl]azepan-4-yl}methanesulfonamide]
12 | 101 | CS(=O)(=O)N[C@H]1CCN(C(=O)C2CC2(F)c2ccccc2-c2c(F)cccc2F)C1 (mixture of isomers) [Example 198, a mixture of N-{(3S)-1-[(1R,2R)-2-(2′,6′-difluoro[1,1′-biphenyl]-2-yl)-2-fluorocyclopropane-1-carbonyl]pyrrolidin-3-yl}methanesulfonamide and N-{(3S)-1-[(1S,2S)-2-(2′,6′-difluoro[1,1′-biphenyl]-2-yl)-2-fluorocyclopropane-1-carbonyl]pyrrolidin-3-yl}methanesulfonamide]
13 | 100 | O=C(C1CC1c1ccccc1-c1c(F)cccc1F)N1CCC[C@H](NS(=O)(=O)CBr)C1 (mixture of isomers) [Example 213, a mixture of 1-bromo-N-{(3S)-1-[(1R,2R)-2-(2′,6′-difluoro[1,1′-biphenyl]-2-yl)cyclopropane-1-carbonyl]piperidin-3-yl}methanesulfonamide and 1-bromo-N-{(3S)-1-[(1S,2S)-2-(2′,6′-difluoro[1,1′-biphenyl]-2-yl)cyclopropane-1-carbonyl]piperidin-3-yl}methanesulfonamide]
14 | 52 | CS(=O)(=O)NC1CCCN(C(=O)C2CC2c2ccccc2-c2ncccc2F)CC1 (mixture of isomers) [Example 256, a mixture of N-[(4S)-1-{(1R,2R)-2-[2-(3-fluoropyridin-2-yl)phenyl]cyclopropane-1-carbonyl}azepan-4-yl]methanesulfonamide and N-[(4S)-1-{(1S,2S)-2-[2-(3-fluoropyridin-2-yl)phenyl]cyclopropane-1-carbonyl}azepan-4-yl]methanesulfonamide]
15 | 98 | CCS(=O)(=O)NC1COCCN(C(=O)[C@@H]2C[C@H]2c2ccccc2-c2c(F)cccc2F)C1 (mixture of isomers) [Example 257]
